The values that follow come from patent publication US20140045747A1, “METHODS FOR INCREASING AND MOBILIZING HEMATOPOIETIC STEM CELLS” (Cleveland Biolabs, Inc., priority 2007, published 2014).

The subject of assay [1] is hematopoietic stem and progenitor cells in bone marrow. The assay can be described thus: CBLB612 dose dependence of HSC number in mouse bone marrow (Example 6). Format: in vivo, C57Bl/6NHsd mice. The following applies: average, regimen per group b224: AMD3100 5 mg/kg SC 1 h before euthanasia, G-CSF four daily 0.1 mg/kg SC, 612 1.2 mg/kg SC 72 h. The protocol:
(§1) The doses were calculated as intended dose/kg of average weight. The adjustment of a dose was accomplished by adjusting the concentration of an article for injection while keeping the injection volume constant.
(§2) According to Table 9, all groups received a single subcutaneous (SC) injection of 5 mg/kg of AMD3100 one hour before euthanasia. Control group 1 was injected with 5 mg/kg of AMD3100 only. Control group 2 was treated with four daily 0.1 mg/kg SC injections of G-CSF and on the fifth day the mice were injected with AMD3100. Control group 8 consisted of ICR mice and received the same treatment as Control group 2. Study groups 3, 4, 5, and 6 received a single SC injection of CBLB612 at 1.2; 0.4; 0.13; and 0.04 mg/kg doses, respectively, at 72 hours before blood collection. Group 7 received a single SC injection of 1.2 mg/kg CBLB612 at 24 hours before blood collection. Study group 9 was treated with four daily SC injections of 0.1 mg/kg G-CSF, a single SC injection of 1.2 mg/kg CBLB612 at 72 hours before blood collection, and a single SC injection of 5 mg/kg AMD3100 one hour before euthanasia at the fifth day after the first G-CSF injection.

Assay [2] has the same test system. Briefly: Kinetics of HSC number after CBLB612, bone marrow of C57Bl mice (Example 7). Format: in vivo. The protocol: (§3) The following mobilization of HSC and progenitor cells from the bone marrow to peripheral blood after CBLB612 injection. […] The doses were calculated as intended dose/kg of average weight. The adjustment of a dose was accomplished by adjusting the concentration of an article for injection while keeping the injection volume constant. According to Table 13, with the exception of the PBS control group 8, all groups received a 5 mg/kg dose of AMD3100 one hour before euthanasia. Control group 7 received a 6.5 mg/kg does of AMD3100. Negative control group 8 received a single SC injection of 200 μl PBS one hour before blood collection. Study groups 1-6 received single SC injections of CBLB12 at 2 mg/kg at different time points prior to blood collection. Positive control group 9 received four daily SC injections of 0.1 mg/kg G-CSF.

Assay [3] concerns hematopoietic stem and progenitor cells in peripheral blood. The assay can be described thus: Kinetics of HSC mobilization after CBLB612, peripheral blood of C57Bl mice (Example 7). Format: in vivo. The protocol:
as §3

Assay [4] has the same test system. The assay can be described thus: CBLB612 dose dependence of HSC mobilization, peripheral blood of C57Bl mice (Example 6). The following applies: C57Bl/6NHsd mice, average, regimen per group b224: AMD3100 5 mg/kg SC 1 h before euthanasia, G-CSF four daily 0.1 mg/kg SC, 612 1.2 mg/kg SC 72 h. In kind it is in vivo. On the procedure: as §1, §2
The subject of assay [5] is C57/B6 mice irradiated with 9 Gy. Briefly: Survival of lethally irradiated mice transfused with PWBC from treated donor mice (Example 2). Format: in vivo. The following applies: recipients irradiated 9 Gy, transfused with PWBC from donor mice treated with the compound; 5 mice at Day 0. On the procedure: Blood transfused from lipopeptide-treated mice is capable of protecting recipient mice from the effects of radiation. […] To control for the effects of CBLB612, a group of mice was injected daily for four consecutive days with 100 μg/kg G-CSF, or with PBS.
Following the last injection, blood was collected from the treated mice by cardiac puncture and combined for each group (i.e., PBS negative controls, G-CSF positive controls, and CBLB612 experimental). Next, peripheral white blood cells (PWBC) were fractionated, and 200 μL of fractionated PWBC were injected into the tail veins of irradiated recipient mice. The amount of transfused PWBC was equivalent to the amount from one mouse.
Mice from the five test groups (i.e., PBS-, G-CSF-, and CBLB612-treated mouse blood transfusions, no transfusion, and bone marrow injection), previously irradiated with 9 Gy (a lethal dose for C57/B6 mice) for 2 h prior to transfusion, were observed and their survival rate assessed following transfusion.

The mark [6] stands for this setting: AMD3100 5 mg/kg SC 1 h before collection.
Where [7] appears, read: AMD3100 + 30%: 6.5 mg/kg SC 1 h before collection.

In the case of `c1cc(CN2CCCNCCNCCCNCC2)ccc1CN1CCCNCCNCCCNCC1` [AMD3100], in assay [1], the “7AAD−/LIN−” value was 2.39 ×10^6, the KSL is listed as 1.37 ×10^4, the “KSL/CD34+” value is reported as 1.25 ×10^4 and the “KSL/CD34−” value is 1.24 ×10^3. Further, in assay [1], the “LIN−/kit−/sca1+” value is listed as 15.74 ×10^4, the “LIN−/sca1−/kit+” value is given as 13.26 ×10^4 and the “total number of cells” value is on record as 4.47 10^7. In addition, in assay [2] (setting [6]), the “7AAD−/LIN− (average number)” value is on record as 2.44 ×10^6, the “KSL (average number)” value was 17184, the “KSL/CD34+ (average number)” value amounted to 14743 and the “KSL/CD34− (average number)” value was found to be 2689. In assay [2] (setting [6]), the “LIN−/kit−/sca1+ (average number)” value is recorded as 206061, the “LIN−/sca1−/kit+ (average number)” value amounted to 163895 and the “total number of cells (average)” value is given as 4.88 10^7. Also, in assay [2] (setting [7]), the “7AAD−/LIN− (average number)” value is 2.26 ×10^6, the “KSL (average number)” value amounted to 41791, the “KSL/CD34+ (average number)” value stood at 40873 and the “KSL/CD34− (average number)” value was determined as 1084. In addition, in assay [2] (setting [7]), the “LIN−/kit−/sca1+ (average number)” value was found to be 148328, the “LIN−/sca1−/kit+ (average number)” value is listed as 281722 and the “total number of cells (average)” value was 3.65 10^7. In assay [3] (setting [6]), the “7AAD−/LIN− (average number)” value worked out at 421616, the “KSL (average number)” value was 360, the “KSL/CD34+ (average number)” value worked out at 308 and the “KSL/CD34− (average number)” value was 56. Further, in assay [3] (setting [6]), the “LIN−/kit−/sca1+ (average number)” value worked out at 23142, the “LIN−/sca1−/kit+ (average number)” value turned out to be 1932 and the “total number of WBC (average)” value is on record as 962.40 10^4/ml. Moreover, in assay [3] (setting [7]), the “7AAD−/LIN− (average number)” value stood at 302644, the “KSL (average number)” value worked out at 907, the “KSL/CD34+ (average number)” value amounted to 856 and the “KSL/CD34− (average number)” value is 63. In addition, in assay [3] (setting [7]), the “LIN−/kit−/sca1+ (average number)” value is 30938, the “LIN−/sca1−/kit+ (average number)” value was found to be 1816 and the “total number of WBC (average)” value was 1111.05 10^4/ml. For the same molecule, in assay [4], the “7AAD−/LIN−” value came to 254725, the KSL turned out to be 238, the “KSL/CD34+” value is listed as 174 and the “KSL/CD34−” value turned out to be 72. In addition, in assay [4], the “LIN−/kit−/sca1+” value worked out at 40971, the “LIN−/sca1−/kit+” value came out at 1104 and the “total number of WBC” value is 629.95 10^4/ml.

B1: G-CSF: granulocyte-colony stimulating factor, a cytokine; positive control (protein, UniProt P09919 31-207, looked up)
Granulocyte …: TPLGPASSLPQSFLLKCLEQVRKIQGDGAALQEKLVSECATYKLCHPEELVLLGHSLGIPWAPLSSCPSQALQLAGCLSQLHSGLFLYQGLLQALEGISPELGPTLDTLQLDVADFATTIWQQMEELGMAPALQPTQGAMPAFASAFQRRAGGVLVASHLQSFLEVSYRVLRHLAQP
For B1, in assay [5], the “Number of Surviving Mice, Day 21” value worked out at 5; the “Number of Surviving Mice, Day 22” value was 5; the “Number of Surviving Mice, Day 23” value is reported as 5; the “Number of Surviving Mice, Day 24” value was determined as 5.
